{"source": "patent US11149036B2", "about": "“3-(1H-pyrazol-4-yl)pyridine allosteric modulators of the M4 muscarinic acetylcholine receptor” (Merck Sharp & Dohme Corp., priority 2017, dated 2021)"}
{"target": "T1, human M4 muscarinic acetylcholine receptor (Homo sapiens, UniProt P08173)", "T1 construct": "expressed in transfected cells; host or cells: CHO-K1", "T1 sequence (P08173 1-479)": "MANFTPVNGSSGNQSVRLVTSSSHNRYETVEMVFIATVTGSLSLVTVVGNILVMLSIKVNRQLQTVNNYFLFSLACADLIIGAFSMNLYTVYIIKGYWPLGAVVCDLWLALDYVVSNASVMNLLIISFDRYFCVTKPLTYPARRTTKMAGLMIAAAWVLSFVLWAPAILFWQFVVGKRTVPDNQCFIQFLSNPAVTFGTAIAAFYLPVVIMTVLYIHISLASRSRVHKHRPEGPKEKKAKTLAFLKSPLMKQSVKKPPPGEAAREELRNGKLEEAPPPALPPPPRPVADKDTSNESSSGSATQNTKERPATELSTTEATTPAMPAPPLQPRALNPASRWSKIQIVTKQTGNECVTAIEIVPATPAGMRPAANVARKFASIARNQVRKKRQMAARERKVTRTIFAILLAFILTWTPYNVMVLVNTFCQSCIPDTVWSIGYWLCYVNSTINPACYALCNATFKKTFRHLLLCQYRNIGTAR", "experiment": "human FLIPR-based M4 PAM assay (CHO-K1 cells with human M4 receptor and Gaqi5, calcium dye fluorescence)", "type": "cell-based", "settings": "inflection point (IP) of dose response curve, acetylcholine added at 20% of maximum response, read-out: M4 FLIPPR Hu IP", "in_short": "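CHO-K1 cells stably expressing human M4 with chimeric Gaqi5, calcium-dye loaded ~1 h at 37° C; compound added at increasing concentrations 4 min before acetylcholine at an EC20 concentration (sometimes a further EC70 addition).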", "units": {"EC50": "µM"}}
{"smiles": "Cc1cc(-c2cnn(CC3(F)CCCC3)c2)c(-c2cnc3c(c2)C(=O)N(CC2CC2)C3)nc1Cl", "note": "[Example 116, 3-(6-chloro-3-(1-((1-fluorocyclopentyl)methyl)-1H-pyrazol-4-yl)-5-methylpyridin-2-yl)-6-(cyclopropylmethyl)-6,7-dihydro-5H-pyrrolo [3,4-b]pyridin-5-one]", "EC50": 0.061}
{"smiles": "Cc1cc(-c2cnn(CC3(F)CCCC3)c2)c(-c2cnc3c(c2)ncn3C)nc1Cl", "note": "[Example 117, 6-(6-chloro-3-(1-((1-fluorocyclopentyl)methyl)-1H-pyrazol-4-yl)-5-methylpyridin-2-yl)-3-methyl-3H-imidazo[4,5-b]pyridine]", "EC50": 0.045}
{"smiles": "Cc1cc(-c2cnn(CC3(F)CCCC3)c2)c(-c2ccn3cnnc3c2)nc1Cl", "note": "[Example 118, 7-(6-chloro-3-(1-((1-fluorocyclopentyl)methyl)-1H-pyrazol-4-yl)-5-methylpyridin-2-yl)-[1,2,4]triazolo[4,3-a]pyridine]", "EC50": 0.048}
{"smiles": "COc1cc2ccc(-c3nc(Cl)c(C)cc3-c3cnn(CC4(C)CCCC4)c3)cc2nn1", "note": "[Example 119, 7-(6-chloro-5-methyl-3-(1-((1-methylcyclopentyl)methyl)-1H-pyrazol-4-yl)pyridin-2-yl)-3-methoxycinnoline]", "EC50": 0.005}
{"smiles": "Cn1cnc2cc(-c3nc(C(F)F)ccc3-c3cnn(C[C@H]4CC[C@H](F)C4)c3)ccc21", "note": "[Example 120, 5-(6-(difluoromethyl)-3-(1-(((1S,3S)-3-fluorocyclopentyl)methyl)-1H-pyrazol-4-yl)pyridin-2-yl)-1-methyl-1H-benzo[d] imidazole]", "EC50": 0.044}
{"smiles": "Cn1cnc2cc(-c3nc(C(F)F)ccc3-c3cnn(C[C@@H]4CC[C@@H](F)C4)c3)ccc21", "note": "[Example 121, 5-(6-(difluoromethyl)-3-(1-(((1R,3R)-3-fluorocyclopentyl)methyl)-1H-pyrazol-4-yl)pyridin-2-yl)-1-methyl-1H-benzo[d] imidazole]", "EC50": 0.05}
{"smiles": "COc1cc2ccc(-c3nc(C(F)F)ccc3-c3cnn(C[C@@H]4CC[C@@H](F)C4)c3)cc2nn1", "note": "[Example 122, 7-(6-(difluoromethyl)-3-(1-(((1R,3R)-3-fluorocyclopentyl)methyl)-1H-pyrazol-4-yl)pyridin-2-yl)-3-methoxycinnoline]", "EC50": 0.059}
{"smiles": "COc1cc2ccc(-c3nc(C(F)F)ccc3-c3cnn(C[C@H]4CC[C@H](F)C4)c3)cc2nn1", "note": "[Example 123, 7-(6-(difluoromethyl)-3-(1-(((1S,3S)-3-fluorocyclopentyl)methyl)-1H-pyrazol-4-yl)pyridin-2-yl)-3-methoxy-cinnoline]", "EC50": 0.063}
{"smiles": "Cn1nnc2cc(-c3nc(C#N)ccc3-c3cnn(CC4(C)CCCC4)c3)ccc21", "note": "[Example 124, 6-(1-methyl-1H-benzo[d][1,2,3]triazol-5-yl)-5-(1-((1-methylcyclopentyl)methyl)-1H-pyrazol-4-yl)picolinonitrile]", "EC50": 0.027}
{"smiles": "Cn1nc2ccc(-c3nc(C#N)ccc3-c3cnn(CC4(C)CCCC4)c3)cc2n1", "note": "[Example 125, 6-(2-methyl-2H-benzo[d][1,2,3]triazol-5-yl)-5-(1-((1-methylcyclopentyl)methyl)-1H-pyrazol-4-yl)picolinonitrile]", "EC50": 0.076}
{"smiles": "CC1(Cn2cc(-c3ccc(C#N)nc3-c3ccc4ccc(Cl)nc4c3)cn2)CCCC1", "note": "[Example 126, 6-(2-chloro-quinolin-7-yl)-5-(1-((1-methylcyclo-pentyl)methyl)-1H-pyrazol-4-yl)picolinonitrile]", "EC50": 0.078}
{"smiles": "CC1(Cn2cc(-c3ccc(C#N)nc3-c3ccc4cc(Cl)nnc4c3)cn2)CCCC1", "note": "[Example 127, 6-(3-chlorocinnolin-7-yl)-5-(1-((1-methylcyclopentyl)methyl)-1H-pyrazol-4-yl)picolinonitrile]", "EC50": 0.026}
{"smiles": "CC1(Cn2cc(-c3ccc(C#N)nc3-c3ccc4cc(F)nnc4c3)cn2)CCCC1", "note": "[Example 128, 6-(3-fluorocinnolin-7-yl)-5-(1-((1-methylcyclopentyl)methyl)-1H-pyrazol-4-yl)picolinonitrile]", "EC50": 0.035}
{"smiles": "N#Cc1ccc(-c2cnn(CC3(F)CCCC3)c2)c(-c2ccn3cc(CF)nc3c2)n1", "note": "[Example 135, 5-(1-((1-fluorocyclopentyl)methyl)-1H-pyrazol-4-yl)-6-(2-(fluoromethyl)imidazo[1,2-a]pyridin-7-yl)picolinonitrile]", "EC50": 0.024}
{"smiles": "CC1(Cn2cc(-c3cc(F)c(F)nc3-c3ccn4ccnc4c3)cn2)CCCC1", "note": "[Example 137, 7-(5,6-difluoro-3-(1-((1-methylcyclopentyl)methyl)-1H-pyrazol-4-yl)pyridin-2-yl)imidazo[1,2-a]pyridine]", "EC50": 0.021}
{"smiles": "O=C1c2cc(-c3ncccc3-c3cnn(CC4(F)CCCC4)c3)ccc2CN1C1CCC1", "note": "[Example 139, 2-cyclobutyl-6-(3-(1-((1-fluorocyclopentyl)methyl)-1H-pyrazol-4-yl)pyridin-2-yl)isoindolin-1-one]", "EC50": 0.017}
{"smiles": "O=C1c2cc(-c3ncccc3-c3cnn(CC4(F)CCCC4)c3)ccc2CN1CC1CCC1", "note": "[Example 140, 2-(cyclobutylmethyl)-6-(3-(1-((1-fluorocyclopentyl)methyl)-1H-pyrazol-4-yl)pyridin-2-yl)isoindolin-1-one]", "EC50": 0.068}
{"smiles": "Cc1nc2cc(-c3nc(C#N)c(C)cc3-c3cnn(CC4(F)CCCC4)c3)ccn2n1", "note": "[Example 141, 5-(1-((1-fluorocyclopentyl)methyl)-1H-pyrazol-4-yl)-3-methyl-6-(2-methyl-[1,2,4]triazolo[1,5-a]pyridin-7-yl)picolinonitrile]", "EC50": 0.05}
{"smiles": "Cc1cc(-c2cnn(CC3(F)CCCC3)c2)c(-c2cnc3c(c2)ncn3C)nc1C#N", "note": "[Example 142, 5-(1-((1-fluorocyclopentyl)methyl)-1H-pyrazol-4-yl)-3-methyl-6-(3-methyl-3H-imidazo[4,5-b]pyridin-6-yl)picolinonitrile]", "EC50": 0.104}
{"smiles": "Cc1cc(-c2cnn(CC3(F)CCCC3)c2)c(-c2ccn3ncnc3c2)nc1C#N", "note": "[Example 143, 6-([1,2,4]triazolo[1,5-a]pyridin-7-yl)-5-(1-((1-fluorocyclopentyl)methyl)-1H-pyrazol-4-yl)-3-methylpicolinonitrile]", "EC50": 0.071}
{"smiles": "CC1(Cn2ncc(-c3ccc(C#N)nc3-c3ccn4ccnc4c3)c2C#N)CCCC1", "note": "[Example 144, 5-(5-cyano-1-((1-methylcyclopentyl)methyl)-1H-pyrazol-4-yl)-6-(imidazo[1,2-a]pyridin-7-yl)picolinonitrile]", "EC50": 0.054}
{"smiles": "COc1cc2ccc(-c3nc(C)ccc3-c3cnn(CC4CCC5(CC5)C4)c3)cc2nn1", "note": "(stereo not shown) [Example 145, 3-methoxy-7-(6-methyl-3-(1-(spiro[2.4]heptan-5-ylmethyl)-1H-pyrazol-4-yl)pyridin-2-yl)cinnoline]", "EC50": 0.092}
{"smiles": "c1cnc(-c2ccc3cccnc3c2)c(-c2cnn(CC3CCCC3)c2)c1", "note": "[Example 147, 7-(3-(1-(cyclopentylmethyl)-1H-pyrazol-4-yl)pyridin-2-yl)quinoline]", "EC50": 0.05}
{"smiles": "Cc1ccc(-c2cnn(CC3CCCC3)c2)c(-c2ccc3c(c2)nc(Cl)n3C)n1", "note": "[Example 152, 2-chloro-5-(3-(1-(cyclopentylmethyl)-1H-pyrazol-4-yl)-6-methylpyridin-2-yl)-1-methyl-1H-benzo[d]imidazole]", "EC50": 0.08}
{"smiles": "N#Cc1ccc(-c2cnn(CC3(F)CCCC3)c2)c(-c2ccn3c(Br)cnc3c2)n1", "note": "[Example 153, 6-(3-bromoimidazo[1,2-a]pyridin-7-yl)-5-(1-((1-fluorocyclopentyl)methyl)-1H-pyrazol-4-yl)picolinonitrile]", "EC50": 0.023}
